Columns and labels:
MCF-7 cells = test: Breast cancer cell viability assay (CellTiter-Glo, 5 days); assay type: cell-based; details: 5 days' compound exposure; for IC50: Homo sapiens, MCF7, 120 h
Procedure, shortened: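 MCF-7 cells, 320 per well in RPMI with 10% FBS and 20 mM HEPES, adhered overnight, then exposed 5 days to an eleven-point semilog dilution (final 0.3-0.000003 μM). CellTiter-Glo luminescence read; % viability = (sample − cell-free background)/(untreated − background) × 100.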

ER-α in MCF-7 cells = target: T1, ER-α in MCF-7 cells (Homo sapiens, UniProt P03372); test: Breast cancer cell ER-α in cell western assay (SP1); assay type: cell-based; parameters: endogenous in cells; host or cells: MCF-7; details: 4 or 24 hr post compound addition; for Emax: MCF7, SP1 antibody, read-out: ER-α In Cell Western Assay (SP1) Max Response; for DC50: SP1 antibody, read-out: ER-α In Cell Western Assay (SP1) IC50
T1 sequence (P03372 1-595): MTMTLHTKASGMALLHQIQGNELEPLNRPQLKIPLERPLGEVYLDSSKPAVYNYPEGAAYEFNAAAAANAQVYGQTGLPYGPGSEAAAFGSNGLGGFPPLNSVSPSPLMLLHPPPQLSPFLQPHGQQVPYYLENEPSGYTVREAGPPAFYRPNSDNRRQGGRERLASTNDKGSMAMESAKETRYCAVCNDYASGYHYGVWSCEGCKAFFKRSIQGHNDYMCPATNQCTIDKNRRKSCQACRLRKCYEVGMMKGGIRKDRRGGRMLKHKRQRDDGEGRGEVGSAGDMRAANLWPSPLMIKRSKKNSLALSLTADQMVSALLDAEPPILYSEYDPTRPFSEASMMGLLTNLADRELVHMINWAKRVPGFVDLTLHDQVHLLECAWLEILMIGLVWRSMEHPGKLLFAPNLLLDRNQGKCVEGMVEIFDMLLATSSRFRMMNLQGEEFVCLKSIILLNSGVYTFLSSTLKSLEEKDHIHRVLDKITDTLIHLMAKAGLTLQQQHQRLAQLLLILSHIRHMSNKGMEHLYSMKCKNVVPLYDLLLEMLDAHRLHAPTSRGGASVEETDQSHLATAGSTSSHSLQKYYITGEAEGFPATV
Procedure, shortened: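 MCF-7, charcoal-stripped FBS/RPMI, 3200 cells/well, adhered overnight. Formalin fix, SP1 Ab o/n 4 °C, IRDye 800CW + DRAQ5; % ER = 800/700 ratio vs untreated.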

Structure (SMILES) | MCF7 Viability Assay Max Response (MCF-7 cells) | IC50 (MCF-7 cells) [nM] | Emax (ER-α in MCF-7 cells) [%] | DC50 (ER-α in MCF-7 cells) [nM]
CC/C(=C(/c1ccc(/C=C/C(=O)O)cc1)c1ccc2[nH]ncc2c1)c1cnccc1C(F)(F)F [Compound 207, (E)-3-(4-((E)-1-(1H-Indazol-5-yl)-2-(4-(trifluoromethyl)pyridin-3-yl)but-1-en-1-yl)phenyl)acrylic acid] | ++ (++ = a single % value ≧ 40%) | ≤ 100 | ≥ 40 | ≤ 100
CC/C(=C(/c1ccc(/C=C/C(=O)O)cc1)c1ccc2[nH]ncc2c1)c1ccnn1C [Compound 208, (E)-3-(4-((E)-1-(1H-Indazol-5-yl)-2-(1-methyl-1H-pyrazol-5-yl)but-1-en-1-yl)phenyl)acrylic acid] | + (+ = a single % value < 40%) | > 100 | ≥ 40 | > 100
CC/C(=C(/c1ccc(/C=C/C(=O)O)cc1)c1ccc2[nH]ncc2c1)c1ccc(C(=O)N(C)C)cc1F [Compound 212, (E)-3-(4-((E)-2-(4-(Dimethylcarbamoyl)-2-fluorophenyl)-1-(1H-indazol-5-yl)but-1-en-1-yl)phenyl)acrylic acid] | ++ (++ = a single % value ≧ 40%) | > 100 | ≥ 40 | > 100
CC/C(=C(/c1ccc(/C=C/C(=O)O)cc1)c1ccc2[nH]ncc2c1)c1ccc(C(=O)NC)cc1F [Compound 213, (E)-3-(4-((E)-2-(2-Fluoro-4-(methylcarbamoyl)phenyl)-1-(1H-indazol-5-yl)but-1-en-1-yl)phenyl)acrylic acid] | + (+ = a single % value < 40%) | > 100 | ≥ 40 | > 100
CC/C(=C(/c1ccc(/C=C/C(=O)O)cc1)c1ccc2[nH]ncc2c1)c1ccsc1C [Compound 214, (E)-3-(4-((E)-1-(1H-Indazol-5-yl)-2-(2-methylthiophen-3-yl)but-1-en-1-yl)phenyl)acrylic acid] | ++ (++ = a single % value ≧ 40%) | ≤ 100 | ≥ 40 | ≤ 100
CC/C(=C(/c1ccc(/C=C/C(=O)O)cc1)c1ccc2[nH]ncc2c1)c1cccnc1C [Compound 217, (E)-3-(4-((E)-1-(1H-Indazol-5-yl)-2-(2-methylpyridin-3-yl)but-1-en-1-yl)phenyl)acrylic acid] | ++ (++ = a single % value ≧ 40%) | > 100 | ≥ 40 | –
CC/C(=C(/c1ccc(/C=C/C(=O)O)cc1)c1ccc2[nH]ncc2c1)c1cnccc1C [Compound 218, (E)-3-(4-((E)-1-(1H-Indazol-5-yl)-2-(4-methylpyridin-3-yl)but-1-en-1-yl)phenyl)acrylic acid] | ++ (++ = a single % value ≧ 40%) | > 100 | ≥ 40 | –
CC/C(=C(/c1ccc(/C=C/C(=O)O)cc1)c1ccc2[nH]ncc2c1)c1cnccn1 [Compound 219, (E)-3-(4-((E)-1-(1H-Indazol-5-yl)-2-(pyrazin-2-yl)but-1-en-1-yl)phenyl)acrylic acid] | ++ (++ = a single % value ≧ 40%) | > 100 | ≥ 40 | > 100
CC/C(=C(/c1ccc(/C=C/C(=O)O)cc1)c1ccc2[nH]ncc2c1)c1cncnc1 [Compound 220, (E)-3-(4-((E)-1-(1H-Indazol-5-yl)-2-(pyrimidin-5-yl)but-1-en-1-yl)phenyl)acrylic acid] | + (+ = a single % value < 40%) | > 100 | < 40 | > 100
CC/C(=C(/c1ccc(/C=C/C(=O)O)cc1)c1ccc2[nH]ncc2c1)c1cnnn1C [Compound 221, (E)-3-(4-((E)-1-(1H-Indazol-5-yl)-2-(1-methyl-1H-1,2,3-triazol-5-yl)but-1-en-1-yl)phenyl)acrylic acid] | + (+ = a single % value < 40%) | > 100 | < 40 | > 100
CC/C(=C(/c1ccc(/C=C/C(=O)O)cc1)c1ccc2[nH]ncc2c1)c1cccnc1C(F)(F)F [Compound 222, (E)-3-(4-((E)-1-(1H-Indazol-5-yl)-2-(2-(trifluoromethyl)pyridin-3-yl)but-1-en-1-yl)phenyl)acrylic acid] | ++ (++ = a single % value ≧ 40%) | ≤ 100 | ≥ 40 | ≤ 100
CC/C(=C(/c1ccc(/C=C/C(=O)O)cc1)c1ccc2[nH]ncc2c1)c1cscc1C [Compound 223, (E)-3-(4-((E)-1-(1H-Indazol-5-yl)-2-(4-methylthiophen-3-yl)but-1-en-1-yl)phenyl)acrylic acid] | ++ (++ = a single % value ≧ 40%) | ≤ 100 | ≥ 40 | –
CC/C(=C(/c1ccc(/C=C/C(=O)O)cc1)c1ccc2[nH]ncc2c1F)c1ccncc1Cl [Compound 224, (E)-3-(4-((E)-2-(3-Chloropyridin-4-yl)-1-(4-fluoro-1H-indazol-5-yl)but-1-en-1-yl)phenyl)acrylic acid] | ++ (++ = a single % value ≧ 40%) | ≤ 100 | ≥ 40 | ≤ 100
CC/C(=C(/c1ccc(/C=C/C(=O)O)cc1)c1ccc2[nH]ncc2c1)c1cnsc1 [Compound 225, (E)-3-(4-((E)-1-(1H-Indazol-5-yl)-2-(isothiazol-4-yl)but-1-en-1-yl)phenyl)acrylic acid] | ++ (++ = a single % value ≧ 40%) | > 100 | ≥ 40 | > 100
CC/C(=C(/c1ccc(/C=C/C(=O)O)cc1)c1ccc2[nH]ncc2c1)c1ccncc1C [Compound 226, (E)-3-(4-((E)-1-(1H-Indazol-5-yl)-2-(3-methylpyridin-4-yl)but-1-en-1-yl)phenyl)acrylic acid] | ++ (++ = a single % value ≧ 40%) | ≤ 100 | ≥ 40 | –
CC/C(=C(/c1ccc(/C=C/C(=O)O)cc1)c1ccc2[nH]ncc2c1)c1ccc(C)s1 [Compound 227, (E)-3-(4-((E)-1-(1H-Indazol-5-yl)-2-(5-methylthiophen-2-yl)but-1-en-1-yl)phenyl)acrylic acid] | ++ (++ = a single % value ≧ 40%) | ≤ 100 | ≥ 40 | ≤ 100
CC/C(=C(/c1ccc(/C=C/C(=O)O)cc1)c1ccc2[nH]ncc2c1)c1cnc(C)s1 [Compound 229, (E)-3-(4-((E)-1-(1H-Indazol-5-yl)-2-(2-methylthiazol-5-yl)but-1-en-1-yl)phenyl)acrylic acid] | ++ (++ = a single % value ≧ 40%) | > 100 | ≥ 40 | > 100
O=C(O)/C=C/c1ccc(/C(=C(/CCF)c2ccncc2Cl)c2ccc3[nH]ncc3c2)cc1 [Compound 230, (E)-3-(4-((E)-2-(3-Chloropyridin-4-yl)-4-fluoro-1-(1H-indazol-5-yl)but-1-en-1-yl)phenyl)acrylic acid] | ++ (++ = a single % value ≧ 40%) | ≤ 100 | ≥ 40 | ≤ 100
CC/C(=C(/c1ccc(/C=C/C(=O)O)cc1)c1ccc2[nH]ncc2c1)c1ccncc1F [Compound 231, (E)-3-(4-((E)-2-(3-Fluoropyridin-4-yl)-1-(1H-indazol-5-yl)but-1-en-1-yl)phenyl)acrylic acid] | ++ (++ = a single % value ≧ 40%) | ≤ 100 | ≥ 40 | ≤ 100
CC/C(=C(/c1ccc(/C=C/C(=O)O)cc1)c1ccc2nccn2c1)c1ccc(Cl)cc1Cl [Compound 232, (E)-3-(4-((E)-2-(2,4-Dichlorophenyl)-1-(imidazo[1,2-a]pyridin-6-yl)but-1-en-1-yl)phenyl)acrylic acid] | ++ (++ = a single % value ≧ 40%) | ≤ 100 | ≥ 40 | ≤ 100
CC/C(=C(/c1ccc(/C=C/C(=O)O)cc1)c1ccc2nccn2c1)c1ccc(F)cc1C(F)(F)F [Compound 233, (E)-3-(4-((E)-2-(4-Fluoro-2-(trifluoromethyl)phenyl)-1-(imidazo[1,2-a]pyridin-6-yl)but-1-en-1-yl)phenyl)acrylic acid] | ++ (++ = a single % value ≧ 40%) | ≤ 100 | ≥ 40 | ≤ 100
CC/C(=C(/c1ccc(/C=C/C(=O)O)cc1)c1ccc2[nH]ncc2c1)c1ccnc(OC)c1 [Compound 236, (E)-3-(4-((E)-1-(1H-Indazol-5-yl)-2-(2-methoxypyridin-4-yl)but-1-en-1-yl)phenyl)acrylic acid] | ++ (++ = a single % value ≧ 40%) | ≤ 100 | ≥ 40 | ≤ 100
